Measured values reported in ChEMBL document CHEMBL1201862, “PubChem BioAssay data set” (2004).
Counter-ions that a name gives are not always drawn.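 How tested: cells in 96-well plates exposed to compound for 48 hours at five concentrations. GI50 is the concentration that inhibits growth by half.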 Active and inactive are the calls of the source. No stated cut-off is given here; in the data, active = GI50 up to about 1.1 µM and inactive = higher.

Assays:
Test in all cases: NCI-60 cell line screen, 48 h
786-0 = tested on: 786-0
A498 = tested on: A498
A549 = tested on: A549
ACHN = tested on: ACHN
BT-549 = tested on: BT-549
CCRF-CEM = tested on: CCRF-CEM
COLO 205 = tested on: COLO 205
DU-145 = tested on: DU-145
HCC 2998 = tested on: HCC 2998
HCT-116 = tested on: HCT-116
HCT-15 = tested on: HCT-15
HL-60 = tested on: HL-60
HOP-62 = tested on: HOP-62
HT-29 = tested on: HT-29
Hs-578T = tested on: Hs-578T
IGROV-1 = tested on: IGROV-1
K562 = tested on: K562
KM12 = tested on: KM12
LOX IMVI = tested on: LOX IMVI
M14 = tested on: M14
MCF7 = tested on: MCF7
MDA-MB-231 = tested on: MDA-MB-231
MDA-MB-435 = tested on: MDA-MB-435
MDA-N = tested on: MDA-N
MOLT-4 = tested on: MOLT-4
Malme-3M = tested on: Malme-3M
NCI-H226 = tested on: NCI-H226
NCI-H23 = tested on: NCI-H23
NCI-H460 = tested on: NCI-H460
NCI-H522 = tested on: NCI-H522
NCI/ADR-RES = tested on: NCI/ADR-RES
OVCAR-3 = tested on: OVCAR-3
OVCAR-4 = tested on: OVCAR-4
OVCAR-5 = tested on: OVCAR-5
OVCAR-8 = tested on: OVCAR-8
PC-3 = tested on: PC-3
RPMI-8226 = tested on: RPMI-8226
RXF 393 = tested on: RXF 393
SF-268 = tested on: SF-268
SF-295 = tested on: SF-295
SF-539 = tested on: SF-539
SK-MEL-28 = tested on: SK-MEL-28
SK-MEL-2 = tested on: SK-MEL-2
SK-MEL-5 = tested on: SK-MEL-5
SK-OV-3 = tested on: SK-OV-3
SN12C = tested on: SN12C
SNB-19 = tested on: SNB-19
SNB-75 = tested on: SNB-75
SR = tested on: SR
SW-620 = tested on: SW-620
T47D = tested on: T47D
TK-10 = tested on: TK-10
U-251 = tested on: U-251
UACC-257 = tested on: UACC-257
UACC-62 = tested on: UACC-62
UO-31 = tested on: UO-31
CAKI-1 = tested on: CAKI-1
EKVX = tested on: EKVX

Measured: GI50

COC1=C(Br)[C@H](O)[C@@]2(C=C1Br)CC(C(=O)NCCCCCNC(=N)N)=NO2 [APLYSINAMISINE II]
inactive: 786-0 > 10 µM | A498 > 10 µM | A549 > 10 µM | ACHN > 10 µM | BT-549 > 10 µM | CCRF-CEM > 10 µM | COLO 205 > 10 µM | DU-145 > 10 µM | HCC 2998 > 10 µM | HCT-116 > 10 µM | HL-60 > 10 µM | HOP-62 > 10 µM | HT-29 > 10 µM | Hs-578T > 10 µM | IGROV-1 > 10 µM | K562 > 10 µM | KM12 > 10 µM | LOX IMVI > 10 µM | M14 > 10 µM | MCF7 > 10 µM | MDA-MB-231 > 10 µM | MDA-MB-435 > 10 µM | MDA-N > 10 µM | MOLT-4 > 10 µM | Malme-3M > 10 µM | NCI-H226 > 10 µM | NCI-H23 > 10 µM | NCI-H460 > 10 µM | NCI-H522 > 10 µM | NCI/ADR-RES > 10 µM | OVCAR-3 > 10 µM | OVCAR-4 > 10 µM | OVCAR-5 > 10 µM | OVCAR-8 > 10 µM | PC-3 > 10 µM | RPMI-8226 > 10 µM | RXF 393 > 10 µM | SF-268 > 10 µM | SF-295 > 10 µM | SF-539 > 10 µM | SK-MEL-28 > 10 µM | SK-MEL-2 > 10 µM | SK-MEL-5 > 10 µM | SK-OV-3 > 10 µM | SN12C > 10 µM | SNB-19 > 10 µM | SNB-75 6.79 µM | SR 6.87 µM | SW-620 > 10 µM | T47D > 10 µM | TK-10 > 10 µM | U-251 > 10 µM | UACC-257 > 10 µM | UACC-62 > 10 µM | UO-31 > 10 µM
> 10 µM: HCT-15

CCN(CC)CCNc1ccc(C)c2sc3ccccc3c(=O)c12 [LUCANTHONE HYDROCHLORIDE]
2.75 µM: HCT-15
inactive: 786-0 3.02 µM | A498 2.23 µM | A549 2.61 µM | ACHN 3.54 µM | BT-549 4.36 µM | CAKI-1 2.85 µM | CCRF-CEM 1.91 µM | COLO 205 1.67 µM | DU-145 6.67 µM | EKVX 6.82 µM | HCC 2998 3.64 µM | HCT-116 1.91 µM | HL-60 1.79 µM | HOP-62 6.5 µM | HT-29 1.67 µM | Hs-578T 2.15 µM | IGROV-1 5.42 µM | K562 1.97 µM | KM12 3.09 µM | LOX IMVI 1.49 µM | M14 1.75 µM | MCF7 2.39 µM | MDA-MB-231 2.85 µM | MDA-MB-435 2.04 µM | MDA-N 1.95 µM | MOLT-4 1.27 µM | Malme-3M 3.84 µM | NCI-H226 5.04 µM | NCI-H23 3.33 µM | NCI-H460 1.97 µM | NCI-H522 2.31 µM | NCI/ADR-RES 4.3 µM | OVCAR-3 6.08 µM | OVCAR-4 4.66 µM | OVCAR-5 3.05 µM | OVCAR-8 3.4 µM | PC-3 2.03 µM | RPMI-8226 1.9 µM | RXF 393 1.98 µM | SF-268 5.81 µM | SF-295 2.18 µM | SF-539 2.75 µM | SK-MEL-28 1.82 µM | SK-MEL-2 3.83 µM | SK-MEL-5 2.17 µM | SK-OV-3 6.71 µM | SN12C 2.67 µM | SNB-19 2.54 µM | SNB-75 2.06 µM | SR 2.33 µM | SW-620 1.76 µM | T47D 7.08 µM | TK-10 3.72 µM | U-251 2.33 µM | UACC-257 1.66 µM | UACC-62 1.84 µM | UO-31 1.57 µM
